Test results published in patent publication US5349127A, “Expression of herbicide metabolizing cytochromes P450” (priority 1992, dated 1994).

System: Arabidopsis thaliana seedlings
Assay: Seed germination assay of transgenic Arabidopsis (Example 26)
Format: in vivo
Set-up: Visual Inhibition Ratings of Seedlings: key: 4: complete inhibition; 1: no inhibition
Settings: for #R number of resistant seedlings / #S number of sensitive seedlings / % R percent of seedlings which are resistant: 10015 5 ppb
Experimental: T2 seed was harvested from selected putative transformants and sown on GM medium containing 50 mg/l kanamycin and that containing 5 ppb 10015. Plates were sealed with filter tape, cold treated for 2 or more days at 4° C., and then incubated for 10 to 20 days at 23° C. under constant illumination as described above. Seedlings were scored as resistant (green, true leaves develop) and sensitive (no true leaves develop). […] The percent of resistant seedlings is inversely proportional with the two selections. Kanamycin is a positive selection for those seedlings that carry the foreign DNA.
Selected T2 seedlings that were kanamycin resistant were transplanted to soil and were grown to maturity at 21° C. daytime (14 hours) 18° C. nighttime (10 hours) at 65-80% relative humidity. T3 seed was collected, sterilized, and germinated on GM medium containing 50 mg/l kanamycin and that containing 5 ppb 10015. Plates were sealed with filter tape, cold treated for 2 or more days at 4° C., and then incubated for 10 to 20 days at 23° C. under constant illumination as described above. Two of the six plants produced seed that was 100% resistant to kanamycin and 100% sensitive to 10015; they are homozygous for the inserted DNA. The other four parents are heterozygous and show an inverse proportion of kanamycin and 10015 resistant seedlings. […] Therefore, seedlings expressing the P450SU1 gene can be negatively selected.
Germination assays of homozygous seed on various concentrations of 10015 were performed to assay the relative sensitivity to 10015 produced by the three different promoters and between independent transformants. Seed was sterilized, sown on GM medium with 0, 0.5, 1, 2, 5, 10 and 20 ppb 10015, incubated, and scored as described above. In addition, seedlings are rated on a scale of one to three for the amount of growth.
Over 500 seed that are homozygous for the P450SU1 coding region were sown on the same plates. The plates were sealed, cold-treated, and incubated as previously described. […] Wild type seedlings were unaffected by the dying transformed seedlings. In addition, when greater than 10,000 seed of a homozygous Cab-SU111 plant was sown on GM medium with 10 ppb 10015, then cold-treated and incubated as described above, eighteen seedlings were resistant to 10015 and were unaffected by neighboring seedlings.

`COc1cc(OC)nc(NC(=O)NS(=O)(=O)c2cccc3c2S(=O)(=O)N(C(C)C)C3)n1` [compound 10015] was tested, and the “Visual Inhibition Ratings of Seedlings” value (12.1.1 Cab-SU111, 1 ppb 10015) was 1, the “Visual Inhibition Ratings of Seedlings” value (12.1.1 Cab-SU111, 2 ppb 10015) was 1 and the “Visual Inhibition Ratings of Seedlings” value (12.1.1 Cab-SU111, 5 ppb 10015) was 2. For the same molecule, the “Visual Inhibition Ratings of Seedlings” value (12.1.1 Cab-SU111, 10 ppb 10015) was 4, the “Visual Inhibition Ratings of Seedlings” value (12.1.1 Cab-SU111, 20 ppb 10015) was 4 and the “Visual Inhibition Ratings of Seedlings” value (12.16.2 Cab-SU111, 1 ppb 10015) was 1. For the same molecule, the “Visual Inhibition Ratings of Seedlings” value (12.16.2 Cab-SU111, 2 ppb 10015) was 1, the “Visual Inhibition Ratings of Seedlings” value (12.16.2 Cab-SU111, 5 ppb 10015) was 1 and the “Visual Inhibition Ratings of Seedlings” value (12.16.2 Cab-SU111, 10 ppb 10015) was 1. The “Visual Inhibition Ratings of Seedlings” value (12.16.2 Cab-SU111, 20 ppb 10015) was 1, the “Visual Inhibition Ratings of Seedlings” value (12.20.5 Cab-SU111, 1 ppb 10015) was 1 and the “Visual Inhibition Ratings of Seedlings” value (12.20.5 Cab-SU111, 2 ppb 10015) was 2. For the same molecule, the “Visual Inhibition Ratings of Seedlings” value (12.20.5 Cab-SU111, 5 ppb 10015) was 3, the “Visual Inhibition Ratings of Seedlings” value (12.20.5 Cab-SU111, 10 ppb 10015) was 4 and the “Visual Inhibition Ratings of Seedlings” value (12.20.5 Cab-SU111, 20 ppb 10015) was 4. The “Visual Inhibition Ratings of Seedlings” value (13.3.1 SU18, 1 ppb 10015) was 1, the “Visual Inhibition Ratings of Seedlings” value (13.3.1 SU18, 2 ppb 10015) was 1 and the “Visual Inhibition Ratings of Seedlings” value (13.3.1 SU18, 5 ppb 10015) was 2. For the same molecule, the “Visual Inhibition Ratings of Seedlings” value (13.3.1 SU18, 10 ppb 10015) was 4, the “Visual Inhibition Ratings of Seedlings” value (13.3.1 SU18, 20 ppb 10015) was 4 and the “Visual Inhibition Ratings of Seedlings” value (13.4.6 SSU-SU111, 1 ppb 10015) was 1. For the same molecule, the “Visual Inhibition Ratings of Seedlings” value (13.4.6 SSU-SU111, 2 ppb 10015) was 1, the “Visual Inhibition Ratings of Seedlings” value (13.4.6 SSU-SU111, 5 ppb 10015) was 3 and the “Visual Inhibition Ratings of Seedlings” value (13.4.6 SSU-SU111, 10 ppb 10015) was 4. The “Visual Inhibition Ratings of Seedlings” value (13.4.6 SSU-SU111, 20 ppb 10015) was 4, the “Visual Inhibition Ratings of Seedlings” value (17.1.10 SU18, 1 ppb 10015) was 1 and the “Visual Inhibition Ratings of Seedlings” value (17.1.10 SU18, 2 ppb 10015) was 1. For the same molecule, the “Visual Inhibition Ratings of Seedlings” value (17.1.10 SU18, 5 ppb 10015) was 3, the “Visual Inhibition Ratings of Seedlings” value (17.1.10 SU18, 10 ppb 10015) was 4 and the “Visual Inhibition Ratings of Seedlings” value (17.1.10 SU18, 20 ppb 10015) was 4. For the same molecule, the “Visual Inhibition Ratings of Seedlings” value (17.17.3 SU18, 1 ppb 10015) was 1, the “Visual Inhibition Ratings of Seedlings” value (17.17.3 SU18, 5 ppb 10015) was 1 and the “Visual Inhibition Ratings of Seedlings” value (17.17.3 SU18, 10 ppb 10015) was 2. The “Visual Inhibition Ratings of Seedlings” value (17.17.3 SU18, 20 ppb 10015) was 4, the “Visual Inhibition Ratings of Seedlings” value (17.74.4 SSU-SU111, 1 ppb 10015) was 1 and the “Visual Inhibition Ratings of Seedlings” value (17.74.4 SSU-SU111, 2 ppb 10015) was 1. The “Visual Inhibition Ratings of Seedlings” value (17.74.4 SSU-SU111, 5 ppb 10015) was 2, the “Visual Inhibition Ratings of Seedlings” value (17.74.4 SSU-SU111, 10 ppb 10015) was 3 and the “Visual Inhibition Ratings of Seedlings” value (17.74.4 SSU-SU111, 20 ppb 10015) was 3. The “Visual Inhibition Ratings of Seedlings” value (17.92.3 SSU-SU111, 1 ppb 10015) was 1, the “Visual Inhibition Ratings of Seedlings” value (17.92.3 SSU-SU111, 2 ppb 10015) was 1 and the “Visual Inhibition Ratings of Seedlings” value (17.92.3 SSU-SU111, 5 ppb 10015) was 1. For the same molecule, the “Visual Inhibition Ratings of Seedlings” value (17.92.3 SSU-SU111, 10 ppb 10015) was 1, the “Visual Inhibition Ratings of Seedlings” value (17.92.3 SSU-SU111, 20 ppb 10015) was 1 and the “#R number of resistant seedlings” value (T2 seed ID 12-1, pCab-SU111) was 3. The “#S number of sensitive seedlings” value (T2 seed ID 12-1, pCab-SU111) was 10, the “% R percent of seedlings which are resistant” value (“% R percent” below) (T2 seed ID 12-1, pCab-SU111) was 23% and the “#R number of resistant seedlings” value (T2 seed ID 12-2, pCab-SU111) was 13. The “#S number of sensitive seedlings” value (T2 seed ID 12-2, pCab-SU111) was 0, the “% R percent” value (T2 seed ID 12-2, pCab-SU111) was 100% and the “#R number of resistant seedlings” value (T2 seed ID 12-4, pCab-SU111) was 12. The “#S number of sensitive seedlings” value (T2 seed ID 12-4, pCab-SU111) was 8, the “% R percent” value (T2 seed ID 12-4, pCab-SU111) was 60% and the “#R number of resistant seedlings” value (T2 seed ID 12-5, pCab-SU111) was 15. The “#S number of sensitive seedlings” value (T2 seed ID 12-5, pCab-SU111) was 0, the “% R percent” value (T2 seed ID 12-5, pCab-SU111) was 100% and the “#R number of resistant seedlings” value (T2 seed ID 12-6, pCab-SU111) was 5. The “#S number of sensitive seedlings” value (T2 seed ID 12-6, pCab-SU111) was 9, the “% R percent” value (T2 seed ID 12-6, pCab-SU111) was 36% and the “#R number of resistant seedlings” value (T2 seed ID 12-7, pCab-SU111) was 9. For the same molecule, the “#S number of sensitive seedlings” value (T2 seed ID 12-7, pCab-SU111) was 13, the “% R percent” value (T2 seed ID 12-7, pCab-SU111) was 40% and the “#R number of resistant seedlings” value (T2 seed ID 12-8, pCab-SU111) was 1. For the same molecule, the “#S number of sensitive seedlings” value (T2 seed ID 12-8, pCab-SU111) was 7, the “% R percent” value (T2 seed ID 12-8, pCab-SU111) was 13% and the “#R number of resistant seedlings” value (T2 seed ID 12-9, pCab-SU111) was 3. For the same molecule, the “#S number of sensitive seedlings” value (T2 seed ID 12-9, pCab-SU111) was 9, the “% R percent” value (T2 seed ID 12-9, pCab-SU111) was 25% and the “#R number of resistant seedlings” value (T2 seed ID 12-10, pCab-SU111) was 9. For the same molecule, the “#S number of sensitive seedlings” value (T2 seed ID 12-10, pCab-SU111) was 0, the “% R percent” value (T2 seed ID 12-10, pCab-SU111) was 100% and the “#R number of resistant seedlings” value (T2 seed ID 12-11, pCab-SU111) was 4. For the same molecule, the “#S number of sensitive seedlings” value (T2 seed ID 12-11, pCab-SU111) was 0, the “% R percent” value (T2 seed ID 12-11, pCab-SU111) was 100% and the “#R number of resistant seedlings” value (T3 seed ID 12-1-1, pCab-SU111) was 0. The “#S number of sensitive seedlings” value (T3 seed ID 12-1-1, pCab-SU111) was 196, the “% R percent” value (T3 seed ID 12-1-1, pCab-SU111) was 0% and the “#R number of resistant seedlings” value (T3 seed ID 12-1-2, pCab-SU111) was 0. The “#S number of sensitive seedlings” value (T3 seed ID 12-1-2, pCab-SU111) was 191, the “% R percent” value (T3 seed ID 12-1-2, pCab-SU111) was 0% and the “#R number of resistant seedlings” value (T3 seed ID 12-1-3, pCab-SU111) was 42. For the same molecule, the “#S number of sensitive seedlings” value (T3 seed ID 12-1-3, pCab-SU111) was 90, the “% R percent” value (T3 seed ID 12-1-3, pCab-SU111) was 32% and the “#R number of resistant seedlings” value (T3 seed ID 12-1-4, pCab-SU111) was 80. The “#S number of sensitive seedlings” value (T3 seed ID 12-1-4, pCab-SU111) was 129, the “% R percent” value (T3 seed ID 12-1-4, pCab-SU111) was 37% and the “#R number of resistant seedlings” value (T3 seed ID 12-1-5, pCab-SU111) was 99. The “#S number of sensitive seedlings” value (T3 seed ID 12-1-5, pCab-SU111) was 177, the “% R percent” value (T3 seed ID 12-1-5, pCab-SU111) was 36% and the “#R number of resistant seedlings” value (T3 seed ID 12-1-6, pCab-SU111) was 83. For the same molecule, the “#S number of sensitive seedlings” value (T3 seed ID 12-1-6, pCab-SU111) was 152, the “% R percent” value (T3 seed ID 12-1-6, pCab-SU111) was 35% and the “#R number of resistant seedlings” value (WT) was 58. For the same molecule, the “#S number of sensitive seedlings” value (WT) was 5, the “% R percent” value (WT) was 92% and the “Visual Inhibition Ratings of Seedlings” value (Wild type, 1 ppb 10015) was 1. For the same molecule, the “Visual Inhibition Ratings of Seedlings” value (Wild type, 2 ppb 10015) was 1, the “Visual Inhibition Ratings of Seedlings” value (Wild type, 5 ppb 10015) was 1 and the “Visual Inhibition Ratings of Seedlings” value (Wild type, 10 ppb 10015) was 1. For the same molecule, the “Visual Inhibition Ratings of Seedlings” value (Wild type, 20 ppb 10015) was 1.
